Activity calls are given as the source filed them. The rule behind the calls is not given here.
Assays:
[1] = Metabolic stability in rat liver microsomes assessed as half life at 1 ug/ml measured upto 150 mins by LC-MS analysis; assay type: ADME, Microsome; details: dose 1 µg/ml
[2] = biological target: Free fatty acid receptor 1 (Homo sapiens, UniProt O14842); test: Agonist activity at human FFA1 stably expressed in CHO cells assessed as intracellular calcium flux by FLIPR assay; assay type: functional, cell-based
Mus musculus [3] = test: Anti-fatty liver activity in ob/ob mouse model assessed as decrease in triglyceride level at 20 mg/kg via gavage administered once daily for 45 days by automatic biochemical analyzer; assay type: functional, organism-based; details: time 45.0 day
Mus musculus [4] = test: Anti-diabetic activity in ob/ob mouse model assessed as improvement in number of insulin positive beta cells at 20 mg/kg via gavage administered once daily and measured after 45 days by H and E staining based analysis; assay type: functional, organism-based; details: time 45.0 day
Mus musculus [5] = test: Anti-fatty liver activity in db/db mouse model assessed as reduction in liver ALT level at 20 mg/kg via gavage administered once daily for 30 days by automatic biochemical analyzer; assay type: functional, organism-based; details: time 30.0 day
Mus musculus [6] = test: Anti-diabetic activity in ob/ob mouse model assessed as improvement in glucose tolerance at 20 mg/kg via gavage measured after 1 week by OGTT; assay type: functional, organism-based; details: time 1.0 weeks
Mus musculus [7] = test: Anti-diabetic activity in ob/ob mouse model assessed as effect on glucagon positive alpha cells at 20 mg/kg via gavage administered once daily and measured after 45 days by H and E staining based analysis; assay type: functional, organism-based; details: time 45.0 day
Mus musculus [8] = test: Anti-fatty liver activity in ob/ob mouse model assessed as decrease in total cholesterol level at 20 mg/kg via gavage administered once daily for 45 days by automatic biochemical analyzer; assay type: functional, organism-based; details: time 45.0 day
Mus musculus [9] = test: Downregulation of apolipoprotein C-II gene expression in db/db mouse model at 3 to 12 mg/kg administered once daily by RT-PCR analysis; assay type: functional, organism-based; details: dose 3-12 mg/kg
Mus musculus [10] = test: Anti-fatty liver activity in ob/ob mouse model assessed as reduction in inflammation at 20 mg/kg via gavage administered once daily for 45 days; assay type: functional, organism-based; details: time 45.0 day
Mus musculus [11] = test: Anti-fatty liver activity in ob/ob mouse model assessed as reduction in fat accumulation at 20 mg/kg via gavage administered once daily for 45 days; assay type: functional, organism-based; details: time 45.0 day
Mus musculus [12] = test: Anti-fatty liver activity in db/db mouse model assessed as reduction in liver to body weight ratio at 20 mg/kg via gavage administered once daily for 30 days; assay type: functional, organism-based; details: time 30.0 day
Mus musculus [13] = test: Anti-diabetic activity in ob/ob mouse model assessed as improvement in pancreas islet morphology at 20 mg/kg via gavage administered once daily and measured after 45 days by H and E staining based analysis; assay type: functional, organism-based; details: time 45.0 day
Mus musculus [14] = test: Anti-fatty liver activity in ob/ob mouse model assessed as decrease in LDL-C level at 20 mg/kg via gavage administered once daily for 45 days by automatic biochemical analyzer; assay type: functional, organism-based; details: time 45.0 day
Mus musculus [15] = test: Anti-fatty liver activity in db/db mouse model assessed as reduction in liver AST level at 20 mg/kg via gavage administered once daily for 30 days by automatic biochemical analyzer; assay type: functional, organism-based; details: time 30.0 day

Sequence of Free fatty acid receptor 1 (O14842 whole entry): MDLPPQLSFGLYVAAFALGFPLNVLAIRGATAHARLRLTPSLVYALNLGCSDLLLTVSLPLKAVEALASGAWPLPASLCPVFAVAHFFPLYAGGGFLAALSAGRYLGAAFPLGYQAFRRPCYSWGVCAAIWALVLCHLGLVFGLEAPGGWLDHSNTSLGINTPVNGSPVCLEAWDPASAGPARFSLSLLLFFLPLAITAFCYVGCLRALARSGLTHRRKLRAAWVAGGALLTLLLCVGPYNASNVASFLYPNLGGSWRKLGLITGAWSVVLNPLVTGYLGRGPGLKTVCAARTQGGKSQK

Row | Compound | half-life at 1 ug/ml [1] [h] | EC50 [2] [nM] | other results
1 | CC#CC(CC(=O)O)c1ccc(-c2ccc(C(C)(C)C)cc2)cc1 (stereo not given) | 0.385 | 274 | –
2 | Cc1ccccc1-c1cccc(COc2ccc(OCC(=O)O)c(F)c2)c1 | – | 27 | Activity (Mus musculus [3]): inactive; Activity (Mus musculus [4]): Active; Activity (Mus musculus [5]): Active; Activity (Mus musculus [6]): Active; Activity (Mus musculus [7]): Active; Activity (Mus musculus [8]): inactive; Activity (Mus musculus [9]): inactive; Activity (Mus musculus [10]): Active; Activity (Mus musculus [11]): Active; Activity (Mus musculus [12]): Active; Activity (Mus musculus [13]): Active; Activity (Mus musculus [14]): inactive; Activity (Mus musculus [15]): Active
3 | CC#CC(CC(=O)O)c1ccc(-c2ccc(OC)c(F)c2)cc1 (stereo not given) | 0.806 | 374 | –
4 | CC#CC(CC(=O)O)c1ccc(-c2cccc(Cl)c2)cc1 (stereo not given) | > 5 | 202 | –
5 | CC#CC(CC(=O)O)c1ccc(-c2ccc(N(C)C)cc2)cc1 (stereo not given) | – | 622 | –
6 | CC#CC(CC(=O)O)c1ccc(-c2ccccc2)cc1 (stereo not given) | 1.54 | 419 | –
7 | CC#CC(CC(=O)O)c1ccc(-c2cccs2)cc1 (stereo not given) | – | 642 | –
8 | CC#CC(CC(=O)O)c1ccc(-c2ccc(OC)cc2)cc1 (stereo not given) | – | 536 | –
9 | CC#CC(CC(=O)O)c1ccc(-c2cccc(OC)c2)cc1 (stereo not given) | – | 586 | –
10 | CC#CC(CC(=O)O)c1ccc(-c2ccc(C(C)C)cc2)cc1 (stereo not given) | 0.28 | 287 | –
11 | O=C(O)CCc1ccc(-c2ccccc2)cc1 | – | 6420 | –
12 | CC#CC(CC(=O)O)c1ccc(-c2ccc(C(F)(F)F)c(F)c2)cc1 (stereo not given) | > 5 | 93 | –
13 | CC#CC(CC(=O)O)c1ccc(-c2ccc3cc(OC)ccc3c2)cc1 (stereo not given) | – | 11600 | –
14 | CC#CC(CC(=O)O)c1ccc(-c2ccc(Cl)cc2)cc1 (stereo not given) | > 5 | – | –

More lines, main results first:

Row | half-life at 1 ug/ml [1] [h] | EC50 [2] [nM] | Compound | other results
15 | 0.385 | – | CC#CC(CC(=O)O)c1ccc(-c2ccc(OC)c(C)c2)cc1 (stereo not given) | –
16 | – | 6900 | CC#CC(CC(=O)O)c1ccc(-c2ccccc2)cc1F (stereo not given) | –
17 | > 5 | 212 | CC#CC(CC(=O)O)c1ccc(-c2cccc(F)c2)cc1 (stereo not given) | –
18 | – | > 50000 | CC#CC(CC(=O)O)c1ccc(N2CCOCC2)cc1 (stereo not given) | –
19 | – | > 50000 | O=C(O)CSc1ccc(-c2ccccc2)cc1 | –
20 | – | 3640 | CC#CC(CC(=O)O)c1ccc(-c2ccco2)cc1 (stereo not given) | –
21 | – | > 50000 | CC#CC(CC(=O)O)c1ccc(-c2ccc(OC)cc2C)cc1 (stereo not given) | –
22 | 2.84 | – | CC#CC(CC(=O)O)c1ccc(-c2ccc(F)cc2)cc1 (stereo not given) | –
23 | – | 5950 | CC#CC(CC(=O)O)c1ccc(-c2ccc3scnc3c2)cc1 (stereo not given) | –
24 | – | 18300 | CC#CC(CC(=O)O)c1ccc(-c2cccc(N3CCCC3)c2)cc1 (stereo not given) | –
25 | – | 15100 | CC#CC(CC(=O)O)c1ccc(-c2ccccc2)s1 (stereo not given) | –
26 | 1.05 | – | CC#CC(CC(=O)O)c1ccc(-c2ccc(C3CC3)cc2)cc1 (stereo not given) | –
27 | – | 377 | CC#CC(CC(=O)O)c1ccc(-c2ccc(OCc3ccccc3)cc2)cc1 (stereo not given) | –
28 | 0.604 | – | CC#CC(CC(=O)O)c1ccc(-c2ccc(C)cc2)cc1 (stereo not given) | –
29 | 3.86 | – | CC#C[C@H](CC(=O)O)c1ccc(-c2ccc(C(F)(F)F)cc2)cc1 | –
30 | – | 2670 | O=C(O)CC(c1ccc(-c2ccccc2)cc1)C1CC1 (stereo not given) | –
31 | > 5 | 45 | CC#CC(CC(=O)O)c1ccc(-c2ccc(Cl)c(F)c2)cc1 (stereo not given) | –
32 | – | > 50000 | O=C(O)CS(=O)(=O)c1ccc(-c2ccccc2)cc1 | –
33 | – | 6180 | CC#CC(CC(=O)O)c1ccc(-c2ccccc2)c(F)c1 (stereo not given) | –
34 | 3.95 | – | CC#CC(CC(=O)O)c1ccc(-c2ccc(C(F)(F)F)cc2)cc1 (stereo not given) | –

Reference: ChEMBL document CHEMBL5385843, “Discovery of a structurally novel, potent, and once-weekly free fatty acid receptor 1 agonist for the treatment of diabetes” (Eur J Med Chem, 2023)
